Values of other authors in PMC3117075 (Journal of medicinal chemistry, 2011).

Biological target: BRCT(BRCA1) (Homo sapiens, UniProt P38398)
Details: previously reported value

Sequence of BRCT(BRCA1) (P38398 1646-1859 limits assumed): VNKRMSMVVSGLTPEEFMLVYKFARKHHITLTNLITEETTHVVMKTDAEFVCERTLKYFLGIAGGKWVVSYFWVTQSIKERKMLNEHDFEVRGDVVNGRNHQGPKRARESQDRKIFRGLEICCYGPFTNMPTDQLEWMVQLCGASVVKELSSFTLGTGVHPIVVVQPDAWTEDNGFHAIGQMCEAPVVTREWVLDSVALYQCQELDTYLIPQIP

ΔCp (change in heat capacity at constant pressure): -340 ± 30 cal mol-1 K-1
Substance: ISRSTpSPTFNKQT
